The source made the active and inactive calls. The rule behind the calls is not given here.
What was measured:
Oryctolagus cuniculus [1] = assay: Compound was tested for decrease in IOP (in vivo); 18% reduction of the control 21.4+/-0.3 mmHg; type: functional
Oryctolagus cuniculus [2] = assay: Average IOP after administration was determined; type: functional
[3] = Time within which only 10% of the drug was degraded; type: ADME; settings: pH 4.50, room temperature
Oryctolagus cuniculus [4] = assay: Compound was tested for decrease in IOP for 2-3 h (in vivo); Significant reduction was observed; type: functional, organism-based

Row | Structure (SMILES) | Activity (Oryctolagus cuniculus [1]) [mmHg] | Average IOP (Oryctolagus cuniculus [2]) [mmHg] | t0.9 [3] [days] | Activity (Oryctolagus cuniculus [4])
1 | C=CCc1ccccc1OC/C(CNC(C)C)=N\OC | 3.8 | 21.4 | 75 | 
2 | C=CCc1ccccc1OCC(O)CNC(C)C (configuration not stated) [ALPRENOLOL] |  | 20.6 |  | Active
3 | C=CCc1ccccc1OC/C(CNC(C)C)=N\O |  | 21.8 | 44 | 

From ChEMBL document CHEMBL1128388, “Ocular delivery of the beta-adrenergic antagonist alprenolol by sequential bioactivation of its methoxime analogue” (J Med Chem, 1995)
